# System: patients with type 2 diabetes
# Assay: Adverse events
# Assay type: in vivo, human
# [1] = 28 weeks, as‐treated, number (%) of patients, n = 181 / 122
# [2] = 28 weeks, most common AEs (≥5% of patients)
smiles,measurement,setting,value
"N[C@@H](CC(=O)N1CCn2c(nnc2C(F)(F)F)C1)Cc1cc(F)c(F)cc1F [Sitagliptin, sitagliptin]","symptoms of hypoglycaemia, number of recipients",28 weeks,7 recipients
same,AEs leading to withdrawal,[1],0 (0.0) n (%)
same,Cardiovascular events (adjudicated),[1],0 (0.0) n (%)
same,Gastrointestinal AEs,[1],9 (7.4) n (%)
same,Gastrointestinal AEs: Diarrhea,[1],2 (1.6) n (%)
same,Gastrointestinal AEs: Dyspepsia,[1],1 (0.8) n (%)
same,Gastrointestinal AEs: Nausea,[1],2 (1.6) n (%)
same,Gastrointestinal AEs: Vomiting,[1],0 (0.0) n (%)
same,Hypoglycaemia: Major,[1],0 (0.0) n (%)
same,Injection‐site‐related AEs,[1],0 (0.0) n (%)
same,Injection‐site‐related AEs: Bruising,[1],0 (0.0) n (%)
same,Injection‐site‐related AEs: Induration,[1],0 (0.0) n (%)
same,Injection‐site‐related AEs: Nodules,[1],0 (0.0) n (%)
same,Injection‐site‐related AEs: Pruritus,[1],0 (0.0) n (%)
same,Pancreatic cancer (adjudicated),[1],0 (0.0) n (%)
same,Pancreatitis (adjudicated),[1],0 (0.0) n (%)
same,Renal failure,[1],0 (0.0) n (%)
same,Serious AEs,[1],0 (0.0) n (%)
same,Symptoms of hypoglycaemia,[1],7 (5.7) n (%)
same,Thyroid neoplasms (adjudicated),[1],0 (0.0) n (%)
same,"nasopharyngitis, proportion of patients",[2],0.0%
same,"nausea, proportion of patients",[2],1.6%
same,Hypoglycaemia: Minor,"28 weeks, symptoms and glucose <54 mg/dL, number (%) of patients, n = 181 / 122",1 (0.8) n (%)
same,"AEs reported, proportion of recipients",28‐week treatment period,32.8%
same,Any AE,"28‐week treatment period, as‐treated, exenatide 2.0 mg QW sc (n = 181), sitagliptin 100 mg once daily oral (n = 122), number (%) of patients",40 (32.8) n (%)

# Source: PMC5485171 (Diabetes, Obesity & Metabolism, 2017)
